{"source": "patent US9051349B2", "about": "“Larazotide acetate compositions” (Alba Therapeutics Corp., priority 2007, dated 2015)", "key": {"physchem [1]": {"test": "physchem", "conditions": "water", "method": "Solubilities of Larazotide acetate and the corresponding chloride salt in water were tested at 20° C. after 14 hours of vigorous stirring in the presence of residual solid. Concentrations of peptide are measured by standardized HPLC."}, "[2]": {"method": "The stability of the chloride salt was tested at 25° C. without humidity control (in closed bottles). The stability of the acetate salt was determined at 25° C./60% RH."}, "[3]": {"conditions": "40 C/75% RH, 1 and 2 months", "protocol": "An appropriate amount of amorphous larazotide acetate and crystalline larazotide acetate was used for a stability study to evaluate quality parameters (purity, impurities, assay and ID) for these materials under various storage conditions. Data was collected at two time points, namely at 1 month and at 2 months of storage under the conditions tested.\nData was generated for storage of the three larazotide acetate samples stored at 40 C/75% RH. All three samples were analyzed at 1 and 2 months."}, "[4]": {"conditions": "5% to 95% RH sorption/desorption", "description": "Moisture sorption/desorption data were collected on a VTI SGA-100 Vapor Sorption Analyzer. Sorption and desorption data were collected over a range of 5% to 95% relative humidity (RH) at 10% RH intervals under a nitrogen purge. Samples were not dried prior to analysis. Equilibrium criteria used for analysis were less than 0.0100% weight change in five minutes, with a maximum equilibration time of three hours if the weight criterion was not met. Data were not corrected for the initial moisture content of the samples. NaCl and PVP were used as calibration standards."}, "physchem [5]": {"test": "physchem", "method": "Approximate solubilities of Larazotide acetate Form A in different solvents were determined. Aliquots of the test solvent were added to weighed samples of Larazotide. The samples were sonicated to aid in dissolution. Visual inspection was used to determine if a sample had dissolved. The approximate solubility was calculated from the total amount of solvent added."}, "[6]": {"conditions": "25° C. without humidity control (closed bottles), timepoint 0"}, "[7]": {"conditions": "25° C. without humidity control (closed bottles), timepoint 1"}, "[8]": {"conditions": "25° C. without humidity control (closed bottles), timepoint 2"}}, "note": "Read-outs that look alike come from different tables or passages of the source. Residues, ends and D or L forms follow the SMILES beside them."}
{"molecule": "CC(C)C[C@H](NC(=O)[C@@H](NC(=O)CNC(=O)CN)C(C)C)C(=O)N[C@H](C(=O)N[C@@H](CCC(N)=O)C(=O)N1CCC[C@H]1C(=O)NCC(=O)O)C(C)C", "note": "[Larazotide Chloride] (H-GGVLVQPG-OH)", "values": [{"measurement": "solubility at 14 h", "setting": "physchem [1]", "value": "≥ 300000", "unit": "µg/mL"}, {"measurement": "rate of deamidation", "setting": "[2]; 25° C. without humidity control (closed bottles)", "value": "about 1 %/month"}, {"measurement": "% HPLC Area (purity)", "setting": "[2]; [6]", "value": 98.4, "unit": "%"}, {"measurement": "Deamidated “Glu” % HPLC area", "setting": "[2]; [6]", "value": 1.06, "unit": "%"}, {"measurement": "% HPLC Area (purity)", "setting": "[2]; [7]", "value": 97.8, "unit": "%"}, {"measurement": "Deamidated “Glu” % HPLC area", "setting": "[2]; [7]", "value": 1.85, "unit": "%"}, {"measurement": "% HPLC Area (purity)", "setting": "[2]; [8]", "value": 96.1, "unit": "%"}, {"measurement": "Deamidated “Glu” % HPLC area", "setting": "[2]; [8]", "value": 3.02, "unit": "%"}]}
{"molecule": "CC(C)C[C@H](NC(=O)[C@@H](NC(=O)CNC(=O)CN)C(C)C)C(=O)N[C@H](C(=O)N[C@@H](CCC(N)=O)C(=O)N1CCC[C@H]1C(=O)NCC(=O)O)C(C)C", "note": "[Larazotide Acetate] (H-GGVLVQPG-OH)", "values": [{"measurement": "rate of deamidation", "setting": "[2]; 25° C./60% RH", "value": "about 0.05 %/month"}, {"measurement": "% HPLC Area (purity)", "setting": "[2]; 25° C./60% RH, timepoint 0", "value": 98.7, "unit": "%"}, {"measurement": "Deamidated “Glu” % HPLC area", "setting": "[2]; 25° C./60% RH, timepoint 0", "value": 0.19, "unit": "%"}, {"measurement": "% HPLC Area (purity)", "setting": "[2]; 25° C./60% RH, timepoint 1", "value": 98.4, "unit": "%"}, {"measurement": "Deamidated “Glu” % HPLC area", "setting": "[2]; 25° C./60% RH, timepoint 1", "value": 0.22, "unit": "%"}, {"measurement": "% HPLC Area (purity)", "setting": "[2]; 25° C./60% RH, timepoint 2", "value": 98.2, "unit": "%"}, {"measurement": "Deamidated “Glu” % HPLC area", "setting": "[2]; 25° C./60% RH, timepoint 2", "value": 0.26, "unit": "%"}, {"measurement": "% HPLC Area (purity)", "setting": "[2]; 25° C./60% RH, timepoint 3", "value": 97.7, "unit": "%"}, {"measurement": "Deamidated “Glu” % HPLC area", "setting": "[2]; 25° C./60% RH, timepoint 3", "value": 0.40, "unit": "%"}, {"measurement": "% HPLC Area (purity)", "setting": "[2]; 25° C./60% RH, timepoint 6", "value": 96.1, "unit": "%"}, {"measurement": "Deamidated “Glu” % HPLC area", "setting": "[2]; 25° C./60% RH, timepoint 6", "value": 0.60, "unit": "%"}]}
{"molecule": "CC(C)C[C@H](NC(=O)[C@@H](NC(=O)CNC(=O)CN)C(C)C)C(=O)N[C@H](C(=O)N[C@@H](CCC(N)=O)C(=O)N1CCC[C@H]1C(=O)NCC(=O)O)C(C)C", "note": "[amorphous larazotide acetate] (H-GGVLVQPG-OH)", "values": [{"measurement": "overall rate of degradation", "setting": "[3]", "value": "~10", "unit": "% per month"}]}
{"molecule": "CC(C)C[C@H](NC(=O)[C@@H](NC(=O)CNC(=O)CN)C(C)C)C(=O)N[C@H](C(=O)N[C@@H](CCC(N)=O)C(=O)N1CCC[C@H]1C(=O)NCC(=O)O)C(C)C", "note": "[Form A] (H-GGVLVQPG-OH)", "values": [{"measurement": "solid form by XRPD following the moisture sorption experiment", "setting": "[4]", "value": "still Form A"}, {"measurement": "solubility", "setting": "physchem [5]; (1:1) DCM/MeOH", "value": "< 3000", "unit": "µg/mL"}, {"measurement": "solubility", "setting": "physchem [5]; (1:1) Water/ACN", "value": "< 3000", "unit": "µg/mL"}, {"measurement": "solubility", "setting": "physchem [5]; (1:1) Water/Dioxane", "value": "< 3000", "unit": "µg/mL"}, {"measurement": "solubility", "setting": "physchem [5]; (1:1) Water/MeOH", "value": "< 3000", "unit": "µg/mL"}, {"measurement": "solubility", "setting": "physchem [5]; Acetone", "value": "< 4000", "unit": "µg/mL"}, {"measurement": "solubility", "setting": "physchem [5]; Acetonitrile (ACN)", "value": "< 4000", "unit": "µg/mL"}, {"measurement": "solubility", "setting": "physchem [5]; Dichloromethane (DCM)", "value": "< 4000", "unit": "µg/mL"}, {"measurement": "solubility", "setting": "physchem [5]; Dimethyl sulfoxide (DMSO)", "value": "< 4000", "unit": "µg/mL"}, {"measurement": "solubility", "setting": "physchem [5]; Dioxane", "value": "< 4000", "unit": "µg/mL"}, {"measurement": "solubility", "setting": "physchem [5]; Ethanol (EtOH)", "value": "< 4000", "unit": "µg/mL"}, {"measurement": "solubility", "setting": "physchem [5]; Ethyl acetate (EtOAc)", "value": "< 4000", "unit": "µg/mL"}, {"measurement": "solubility", "setting": "physchem [5]; Methanol (MeOH)", "value": "< 4000", "unit": "µg/mL"}, {"measurement": "solubility", "setting": "physchem [5]; Tetrahydrofuran (THF)", "value": "< 4000", "unit": "µg/mL"}, {"measurement": "solubility", "setting": "physchem [5]; Trifluoroethanol (TFE)", "value": 4000, "unit": "µg/mL"}, {"measurement": "solubility", "setting": "physchem [5]; water", "value": 8000, "unit": "µg/mL"}]}
